Here are results for 17 molecules from US20250345446A1 (Draupnir Bio ApS, priority 2022, published 2025).

Residues, ends and D or L forms follow the SMILES beside them. No end group written: not given here. *: point of attachment. Biotin = O=C1N[C@H]2[C@H](CS[C@H]2CCCCC(=O)*)N1

In one assay the target is T1, soluble ectodomain of sortilin-6his (Homo sapiens, UniProt Q99523, V650M).
T1 construct: the soluble ectodomain of sortilin-6his is measured by microscale thermophoresis (MST)
T1 sequence (Q99523 with tags, fused parts or gaps V650M): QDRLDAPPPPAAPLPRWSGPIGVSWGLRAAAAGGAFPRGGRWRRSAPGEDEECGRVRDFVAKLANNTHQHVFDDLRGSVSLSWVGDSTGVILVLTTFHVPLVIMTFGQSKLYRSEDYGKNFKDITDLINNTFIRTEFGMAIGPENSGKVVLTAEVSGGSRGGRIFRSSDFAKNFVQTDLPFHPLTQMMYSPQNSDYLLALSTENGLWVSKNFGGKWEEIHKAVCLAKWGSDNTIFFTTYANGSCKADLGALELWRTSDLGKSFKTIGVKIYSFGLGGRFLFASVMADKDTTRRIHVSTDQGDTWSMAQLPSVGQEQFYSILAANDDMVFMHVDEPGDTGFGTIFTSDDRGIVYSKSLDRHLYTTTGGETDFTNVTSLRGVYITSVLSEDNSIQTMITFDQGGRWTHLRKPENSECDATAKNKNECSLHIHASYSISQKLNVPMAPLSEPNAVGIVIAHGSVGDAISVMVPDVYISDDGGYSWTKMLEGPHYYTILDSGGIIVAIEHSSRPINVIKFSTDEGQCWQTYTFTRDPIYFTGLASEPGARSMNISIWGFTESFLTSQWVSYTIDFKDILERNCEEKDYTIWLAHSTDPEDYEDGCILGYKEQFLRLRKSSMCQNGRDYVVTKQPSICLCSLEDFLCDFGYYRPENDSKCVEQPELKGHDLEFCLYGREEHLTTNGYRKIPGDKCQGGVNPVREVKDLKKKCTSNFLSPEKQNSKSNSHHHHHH
Nature of the assay: MST binding to soluble ectodomain of sortilin-6his. Particulars: Table 1; biotin-linker-peptide bifunctional compounds; MST; read-out: KD score, binding to sortilin (Kd). The method, then: At this point the plate was sealed with adhesive strip and placed on an Eppendorf thermomixer to shake at 600 rpm for 3 min before spinning on a Fisherbrand plate-spinner for 15 seconds and further incubation 1 hrs at 19° C. MST was measured on a Monolith NT. Automated (Nanotemper) in standard-treated capillaries at 5% LED-power and high MST-power. Dose-response was extracted from the raw thermographs at 20 sec hot-time and the dissociation constant was estimated by sigmoidal curve fitting in MO. Affinity analysis program (Nanotemper). All experiments were run in duplicates.
Turning to `CC(C)C[C@H](NC(=O)[C@H](CC(C)C)NC(=O)[C@H](CCC(N)=O)NC(=O)[C@H](CCCNC(=N)N)NC(=O)[C@H](CO)NC(=O)CNC(=O)CNC(=O)CCCC[C@@H]1SC[C@@H]2NC(=O)N[C@@H]21)C(=O)O` [compound 152] (Biotin-GGSRQLL-OH), the Kd (in general, the concentration at which binding is half-saturated) was in the range of 100 to 2000 nM.

As to `CC(C)C[C@H](NC(=O)[C@H](CC(C)C)NC(=O)[C@H](CCC(N)=O)NC(=O)[C@H](CCCNC(=N)N)NC(=O)CNC(=O)CNC(=O)CNC(=O)CNC(=O)[C@H](CO)NC(=O)CNC(=O)CNC(=O)CCCC[C@@H]1SC[C@@H]2NC(=O)N[C@@H]21)C(=O)O` [compound 150] (Biotin-GGSGGGGRQLL-OH), the Kd is below 100 nM.

With `CC(C)C[C@H](NC(=O)[C@H](CC(C)C)NC(=O)[C@H](CCC(N)=O)NC(=O)[C@H](Cc1ccccc1)NC(=O)CNC(=O)CNC(=O)CNC(=O)CNC(=O)[C@H](CO)NC(=O)CNC(=O)CNC(=O)CCCC[C@@H]1SC[C@@H]2NC(=O)N[C@@H]21)C(=O)O` [compound 143] (Biotin-GGSGGGGFQLL-OH), the dissociation constant (Kd) was below 100 nM.

Still in this assay, the particulars now being: Table 3; monofunctional peptides; MST; read-out: KD score, binding to sortilin (Kd).
With `CC(C)C[C@H](NC(=O)[C@H](CC(C)C)NC(=O)[C@H](CCC(N)=O)NC(=O)[C@@H](N)CCCCN)C(=O)O` [compound 24] (H-KQLL-OH), the Kd was in the range of 25 to 250 nM.

Take APLRDPAPRQLL-OH [compound 57]: the Kd lay in the range of 25 to 250 nM.

For the molecule `CC(C)C[C@H](NC(=O)[C@H](CC(C)C)NC(=O)[C@H](CCC(N)=O)NC(=O)[C@H](CCCNC(=N)N)NC(=O)[C@H](CC(C)C)NC(=O)[C@H](C)NC(=O)[C@@H]1CCCN1C(=O)[C@H](CC(=O)O)NC(=O)[C@H](CCCNC(=N)N)NC(=O)[C@H](CC(C)C)NC(=O)[C@@H]1CCCN1C(=O)[C@H](C)NC(=O)[C@H](CC(=O)O)NC(=O)[C@H](Cc1c[nH]c2ccccc12)NC(=O)[C@H](CCCNC(=N)N)NC(=O)[C@@H]1CCCN1C(=O)[C@H](C)NC(=O)[C@H](CCC(=O)O)NC(=O)[C@@H](N)CCCNC(=N)N)C(=O)O` [compound 53], the Kd was below 25 nM.

As for LYENK-NH2 [compound 65], the Kd was above 2500 nM.

Still in this assay, the particulars now being: Table 4; small molecule bifunctional compounds; MST; read-out: KD score, binding to sortilin (Kd).
As to `CC(C)(C)CC[C@H](NC(=O)c1ccc(Oc2cccc(C(=O)NCCOCCOCCOCCNc3ncc(-c4ccc5c(n4)N(Cc4cccnc4C#N)C(C)(C)C5=O)cn3)c2)nc1)C(=O)O` [BF030, (2S)-2-[[6-[3-[2-[2-[2-[2-[[5-[1-[(2-cyano-3-pyridyl)methyl]-2,2-dimethyl-3-oxo-pyrrolo[2,3-b]pyridin-6-yl]pyrimidin-2-yl]amino]ethoxy]ethoxy]ethoxy]ethylcarbamoyl]phenoxy]pyridine-3-carbonyl]amino]-5,5-dimethyl-hexanoic acid], the equilibrium dissociation constant (Kd) was below 1 nM.

For `Cc1nc2cc(F)c(-c3cnc(OCCN4CCC(n5cc(COCC(=O)N6CCC(OCCNC(=O)COc7cccc(Oc8ccc(C(=O)N[C@@H](CCC(C)(C)C)C(=O)O)cn8)c7)CC6)nn5)CC4)nc3)nc2c(N[C@H](C)c2cc(C#N)ccc2F)c1Cl` [BF090, (2S)-2-[[6-[3-[2-[2-[[1-[2-[[1-[1-[2-[5-[7-chloro-8-[[(1R)-1-(5-cyano-2-fluoro-phenyl)ethyl]amino]-3-fluoro-6-methyl-1,5-naphthyridin-2-yl]pyrimidin-2-yl]oxyethyl]-4-piperidyl]triazol-4-yl]methoxy]acetyl]-4-piperidyl]oxy]ethylamino]-2-oxo-ethoxy]phenoxy]pyridine-3-carbonyl]amino]-5,5-dimethyl-hexanoic acid], the Kd was below 1 nM.

For the molecule `CC(C)(C)CC[C@H](NC(=O)c1ccc(Oc2cccc(OCCOCCOCCOCCOCCOCCOCCOCCNc3ccc([N+](=O)[O-])cc3[N+](=O)[O-])c2)nc1)C(=O)O` [BF012, (2S)-2-[[6-[3-[2-[2-[2-[2-[2-[2-[2-[2-(2,4-dinitroanilino)ethoxy]ethoxy]ethoxy]ethoxy]ethoxy]ethoxy]ethoxy]ethoxy]phenoxy]pyridine-3-carbonyl]amino]-5,5-dimethyl-hexanoic acid], the Kd was in the range of 1 to 10 nM.

On to `CC(C)(C)CC[C@H](NC(=O)c1ccc(Oc2cccc(C(=O)NCCOCCOCCOCCNc3ccc([N+](=O)[O-])cc3[N+](=O)[O-])c2)nc1)C(=O)O` [BF002, (2S)-2-[[6-[3-[2-[2-[2-[2-(2,4-dinitroanilino)ethoxy]ethoxy]ethoxy]ethyl-carbamoyl]phenoxy]pyridine-3-carbonyl]amino]-5,5-dimethyl-hexanoic acid], for which the Kd lay within 1 to 10 nM.

As to `Cc1nc2cc(F)c(-c3cnc(OCCN4CC(n5cc(COCC(=O)N6CC(OCCNC(=O)COc7cccc(Oc8ccc(C(=O)N[C@@H](CCC(C)(C)C)C(=O)O)cn8)c7)C6)nn5)C4)nc3)nc2c(N[C@H](C)c2cc(C#N)ccc2F)c1Cl` [BF089, (2S)-2-[[6-[3-[2-[2-[1-[2-[[1-[1-[2-[5-[7-chloro-8-[[(1R)-1-(5-cyano-2-fluoro-phenyl)ethyl]amino]-3-fluoro-6-methyl-1,5-naphthyridin-2-yl]pyrimidin-2-yl]oxyethyl]azetidin-3-yl]triazol-4-yl]methoxy]acetyl]azetidin-3-yl]oxyethylamino]-2-oxo-ethoxy]phenoxy]pyridine-3-carbonyl]amino]-5,5-dimethyl-hexanoic acid], the equilibrium dissociation constant (Kd) was below 1 nM.

With `CC(C)(C)CC[C@H](NC(=O)c1ccc(Oc2cccc(OCC(=O)NCCOCCOCCOCCOCCOCCOc3ncc(-c4ccc5c(n4)N(Cc4cccnc4C#N)C(C)(C)C5=O)cn3)c2)nc1)C(=O)O` [BF143, (S)-2-(6-(3-((20-((5-(1-((2-cyanopyridin-3-yl)methyl)-2,2-dimethyl-3-oxo-2,3-dihydro-1H-pyrrolo[2,3-b]pyridin-6-yl)pyrimidin-2-yl)oxy)-2-oxo-6,9, 12, 15, 18-pentaoxa-3-azaicosyl)oxy)phenoxy)nicotinamido)-5,5-dimethylhexanoic acid], the Kd is 1 to 10 nM.

Consider `CC(C)(C)CC[C@H](NC(=O)c1ccc(Oc2cccc3c(C(=O)NCCCNC(=O)CCOCCOCCNc4ccc([N+](=O)[O-])cc4[N+](=O)[O-])cccc23)nc1)C(=O)O` [BF009], for which the Kd fell in the range of 1 to 10 nM.

In the case of `C[C@@H]1CN(c2ncc(-c3ccc4c(n3)N(Cc3cccnc3C#N)C(C)(C)C4=O)cn2)CCN1C(=O)COCCNC(=O)c1cccc(Oc2ccc(C(=O)N[C@@H](CCC(C)(C)C)C(=O)O)cn2)c1` [BF058, (S)-2-(6-(3-((2-(2-((R)-4-(5-(1-((2-cyanopyridin-3-yl)methyl)-2,2-dimethyl-3-oxo-2,3-dihydro-1H-pyrrolo[2,3-b]pyridin-6-yl)pyrimidin-2-yl)-2-methylpiperazin-1-yl)-2-oxoethoxy)ethyl)carbamoyl)phenoxy)nicotinamido)-5,5-dimethyl hexanoic acid], the Kd was 1 to 10 nM.

Consider `CC(C)(C)CC[C@H](NC(=O)c1ccc(Oc2cccc(OCCOCCOCCOCCNc3ccc([N+](=O)[O-])cc3[N+](=O)[O-])c2)nc1)C(=O)O` [BF007, (2S)-2-[[6-[3-[2-[2-[2-[2-(2,4-dinitroanilino)ethoxy]ethoxy]ethoxy]ethoxy]phenoxy]pyridine-3-carbonyl]amino]-5,5-dimethyl-hexanoic acid], for which the Kd fell in the range of 1 to 10 nM.

`CC(C)(C)CC[C@H](NC(=O)COc1cccc(Oc2ccc(C(=O)NCCOCCNc3ncc(-c4ccc5c(n4)N(Cc4cccnc4C#N)C(C)(C)C5=O)cn3)cn2)c1)C(=O)O` [BF072, (2S)-2-[[2-[3-[[5-[2-[2-[[5-[1-[(2-cyano-3-pyridyl)methyl]-2,2-dimethyl-3-oxo-pyrrolo[2,3-b]pyridin-6-yl]pyrimidin-2-yl]amino]ethoxy]ethylcarbamoyl]-2-pyridyl]oxy]phenoxy]acetyl]amino]-5,5-dimethyl-hexanoic acid]: the dissociation constant Kd was below 1 nM.
